Here are results for 33 molecules from the Biogen ADME set (Fang et al. 2023).

For this data set the following is noted: for aqueous solubility: pH 6.8.

Converted amounts (≈) assume the structure as drawn.

As to `O=S(=O)(NC[C@H]1CCCN1)c1ccc(OC(F)F)cc1`, the MDR1-MDCK efflux ratio came to 2.89; the intrinsic clearance, human liver microsomes is ≤ 4.74 mL/min/kg; the intrinsic clearance, rat liver microsomes was determined as 34.5 mL/min/kg.

Regarding `Cc1cccc(NCCc2cn3c(n2)CCCC3)n1`, the MDR1-MDCK efflux ratio worked out at 3.58; the intrinsic clearance, human liver microsomes was ≤ 4.74 mL/min/kg; the intrinsic clearance, rat liver microsomes is 971 mL/min/kg; the aqueous solubility was 31 µg/mL (≈ 121 µM).

As to `CCN(c1ccc(C(C)C)cc1)S(=O)(=O)c1ccccc1`, the MDR1-MDCK efflux ratio amounted to 0.516 and the aqueous solubility is 0.65 µg/mL (≈ 2.14 µM).

As for `COc1ccc(F)c(CN2CCC(Cc3noc(C)n3)CC2)c1`, the MDR1-MDCK efflux ratio amounted to 0.656; the intrinsic clearance, human liver microsomes came out at 20.2 mL/min/kg; the intrinsic clearance, rat liver microsomes turned out to be 263 mL/min/kg; the aqueous solubility was 69.4 µg/mL (≈ 217 µM).

In the case of `[2H]C([2H])([2H])NC(=O)c1nnc(NC(=O)C2CC2)cc1Nc1cccc(-c2ncn(C)n2)c1OC`, the MDR1-MDCK efflux ratio was 114; the fraction unbound, human plasma is 0.154; the fraction unbound, rat plasma amounted to 0.172; the intrinsic clearance, human liver microsomes was ≤ 4.74 mL/min/kg. This molecule displayed an intrinsic clearance, rat liver microsomes of 26.1 mL/min/kg and an aqueous solubility of 17 µg/mL (≈ 39.9 µM).

`C#CCNC(=O)CN1C(=O)c2ccccc2C1=O`: the aqueous solubility amounted to 38.9 µg/mL (≈ 161 µM).

On to `Cc1cc(OCC(=O)N(C)C2CCCCCCC2)no1`, for which the MDR1-MDCK efflux ratio is 0.765; the intrinsic clearance, human liver microsomes was 56.6 mL/min/kg; the intrinsic clearance, rat liver microsomes was found to be 2210 mL/min/kg; the aqueous solubility stood at 43.9 µg/mL (≈ 156 µM).

Regarding `c1ccc(CC2=NCCN2)cc1`, the MDR1-MDCK efflux ratio amounted to 0.361; the intrinsic clearance, human liver microsomes is ≤ 4.74 mL/min/kg; the intrinsic clearance, rat liver microsomes was ≤ 10.7 mL/min/kg.

Turning to `CC(C)c1ccc(CN2CCN(C(=O)C3CCN(C(=O)C4CC4)CC3)CC2)cc1`, the MDR1-MDCK efflux ratio was found to be 2.65; the intrinsic clearance, human liver microsomes worked out at 32.1 mL/min/kg; the intrinsic clearance, rat liver microsomes is 379 mL/min/kg.

Consider `CCCCN(C)C(=O)c1cn(-c2ccc(C)c(C)c2)nn1`, for which the intrinsic clearance, human liver microsomes was 127 mL/min/kg; the intrinsic clearance, rat liver microsomes was 530 mL/min/kg; the aqueous solubility is 8.81 µg/mL (≈ 30.8 µM).

As for `Cc1ccc(NC(=O)[C@H]2COc3ccccc3O2)nc1`, the intrinsic clearance, human liver microsomes was found to be 187 mL/min/kg; the intrinsic clearance, rat liver microsomes turned out to be 1320 mL/min/kg; the aqueous solubility was determined as 31.4 µg/mL (≈ 116 µM).

As to `Cc1n[nH]c(C)c1Cc1ccc(NCCC(C)C)cc1`, the MDR1-MDCK efflux ratio amounted to 0.61; the intrinsic clearance, human liver microsomes was ≤ 4.74 mL/min/kg; the intrinsic clearance, rat liver microsomes worked out at 484 mL/min/kg; the aqueous solubility was found to be 14.7 µg/mL (≈ 54.2 µM).

Consider `Cc1cc(-c2nc(N(C)C)no2)cc(O)n1`, for which the MDR1-MDCK efflux ratio was found to be 0.726; the intrinsic clearance, human liver microsomes was ≤ 4.74 mL/min/kg; the intrinsic clearance, rat liver microsomes is 31.7 mL/min/kg.

With `CC(C)(C)NC(=O)NCCn1nc2c(cc1=O)CCCC2`, the MDR1-MDCK efflux ratio came to 67; the intrinsic clearance, human liver microsomes was determined as 12.1 mL/min/kg; the intrinsic clearance, rat liver microsomes stood at 105 mL/min/kg; the aqueous solubility stood at 47.5 µg/mL (≈ 162 µM).

Turning to `Cc1cc(Nc2nnc(C)s2)cc(C2CN(C(=O)c3c(C(C)C)noc3C)CCO2)n1` (stereo unspecified), the MDR1-MDCK efflux ratio is 54.3; the intrinsic clearance, human liver microsomes worked out at 22.5 mL/min/kg; the intrinsic clearance, rat liver microsomes turned out to be 151 mL/min/kg.

Take `CC1=NN(c2ccc(F)cc2)C(=O)/C1=C(/C)Nc1ccc(S(N)(=O)=O)cc1`: the MDR1-MDCK efflux ratio came to 12; the intrinsic clearance, human liver microsomes was ≤ 4.74 mL/min/kg; the intrinsic clearance, rat liver microsomes is ≤ 10.7 mL/min/kg; the aqueous solubility is 28.4 µg/mL (≈ 73 µM).

Take `O=C(NCCc1ccc(F)cc1)n1ccnc1`: the intrinsic clearance, human liver microsomes stood at 39.7 mL/min/kg and the intrinsic clearance, rat liver microsomes was 95.6 mL/min/kg.

For the molecule `O=C(CCc1cccs1)Nc1ccc(N2CCOCC2)cn1`, the MDR1-MDCK efflux ratio amounted to 0.618; the intrinsic clearance, human liver microsomes came out at 21.6 mL/min/kg; the intrinsic clearance, rat liver microsomes was found to be 49.2 mL/min/kg; the aqueous solubility amounted to 32.2 µg/mL (≈ 101 µM).

Molecule `Cc1nc2ccc(C(=O)NCCCN3Cc4ccccc4C3)cc2[nH]1` returned an aqueous solubility of 52.4 µg/mL (≈ 157 µM).

As to `COc1c(N)ncnc1N1CCCC(C)(C)CC1`, the MDR1-MDCK efflux ratio came out at 0.912; the intrinsic clearance, human liver microsomes was determined as 37.2 mL/min/kg; the intrinsic clearance, rat liver microsomes came out at 1210 mL/min/kg; the aqueous solubility amounted to 38.4 µg/mL (≈ 153 µM).

`CCCN(Cc1ccccc1)C(=O)CC1(N)CCC1`: the MDR1-MDCK efflux ratio turned out to be 11.9; the intrinsic clearance, human liver microsomes is ≤ 4.74 mL/min/kg; the intrinsic clearance, rat liver microsomes was 725 mL/min/kg; the aqueous solubility worked out at 56.4 µg/mL (≈ 217 µM).

Take `COc1ccc(-c2ccc(CNc3ccc(CN4CCC(C)CC4)cc3)cc2)cc1`: the intrinsic clearance, human liver microsomes came to 124 mL/min/kg; the intrinsic clearance, rat liver microsomes turned out to be 32.9 mL/min/kg; the aqueous solubility worked out at 14.7 µg/mL (≈ 36.7 µM).

For the molecule `CC(C)N1CCN(CCCSc2ncc[nH]2)CC1`, the intrinsic clearance, human liver microsomes is ≤ 4.74 mL/min/kg and the intrinsic clearance, rat liver microsomes was 87.1 mL/min/kg.

With `Cc1ccc(CN(C)C(=O)c2cn(Cc3ccccc3F)nn2)cc1`, the MDR1-MDCK efflux ratio is 0.764; the intrinsic clearance, human liver microsomes came out at 64.8 mL/min/kg; the intrinsic clearance, rat liver microsomes worked out at 1090 mL/min/kg; the aqueous solubility is 11.4 µg/mL (≈ 33.7 µM).

`O=c1c2oc3ccccc3c2ncn1Cc1ccc(Cl)cc1`: the MDR1-MDCK efflux ratio worked out at 0.573; the intrinsic clearance, human liver microsomes worked out at 103 mL/min/kg; the intrinsic clearance, rat liver microsomes stood at 906 mL/min/kg.

On to `CCCCOc1ccc(C(=O)NCc2cc(C)on2)cc1`, for which the MDR1-MDCK efflux ratio came to 0.563; the intrinsic clearance, human liver microsomes was found to be 11.8 mL/min/kg; the intrinsic clearance, rat liver microsomes turned out to be 421 mL/min/kg; the aqueous solubility came to 4.2 µg/mL (≈ 14.6 µM).

As for `O=C(Nc1ccn(Cc2ccccn2)n1)c1c(F)cccc1I`, the MDR1-MDCK efflux ratio was 2.85; the intrinsic clearance, human liver microsomes was ≤ 4.74 mL/min/kg; the intrinsic clearance, rat liver microsomes turned out to be 132 mL/min/kg; the aqueous solubility came out at 61.2 µg/mL (≈ 145 µM).

In the case of `Cc1nnc(CN(C)Cc2cnn(C)c2C)s1`, the MDR1-MDCK efflux ratio turned out to be 1.44; the intrinsic clearance, human liver microsomes is ≤ 4.74 mL/min/kg; the intrinsic clearance, rat liver microsomes turned out to be 20 mL/min/kg.

Consider `O=C(CCCc1cc(Cl)sc1Cl)N1CC[C@H](O)C1`, for which the MDR1-MDCK efflux ratio came out at 1.49; the intrinsic clearance, human liver microsomes stood at 18.6 mL/min/kg; the intrinsic clearance, rat liver microsomes is 506 mL/min/kg; the aqueous solubility was found to be 50 µg/mL (≈ 162 µM).

In the case of `Cc1nc2cc(C(=O)N3CCc4nc5ccccc5c(=O)n4CC3)ccc2n1C`, the intrinsic clearance, human liver microsomes is ≤ 4.74 mL/min/kg; the intrinsic clearance, rat liver microsomes turned out to be 24.7 mL/min/kg; the aqueous solubility is 67.3 µg/mL (≈ 174 µM).

`CCOc1cc2nn(CCC(C)(C)O)cc2cc1NC(=O)c1cccc(C(F)F)n1`: the MDR1-MDCK efflux ratio is 11; the fraction unbound, human plasma turned out to be 0.0126; the fraction unbound, rat plasma was 0.0186; the intrinsic clearance, human liver microsomes was ≤ 4.74 mL/min/kg. Further, the intrinsic clearance, rat liver microsomes was ≤ 10.7 mL/min/kg and the aqueous solubility is 3.55 µg/mL (≈ 8.48 µM).

For the molecule `Cc1noc(C(C)C)c1C(=O)Nc1ccccn1`, the MDR1-MDCK efflux ratio was 0.524; the intrinsic clearance, human liver microsomes was 28.4 mL/min/kg; the intrinsic clearance, rat liver microsomes is 510 mL/min/kg; the aqueous solubility was 58.3 µg/mL (≈ 238 µM).

Molecule `CN1C(=O)c2ccc(C(=O)N3CCN(C4CCCCC4)CC3)cc2C1=O` displayed an intrinsic clearance, human liver microsomes of 18.5 mL/min/kg and an intrinsic clearance, rat liver microsomes of 137 mL/min/kg.

What is called aqueous solubility is how much of the substance goes into solution per volume.
